For one series, the system named is TNF. The series can be described thus: PBMC assay: TNF cytokine levels in supernatant of LPS-stimulated human PBMCs (MSD). Format: cell-based. The settings on record: 30 min compound pre-incubation, 100 ng/ml LPS for 6 hrs. How it is done:
(§1) Peripheral venous blood was collected from healthy individuals and human peripheral blood mononuclear cells (PBMCs) were isolated from blood by Ficoll-Histopaque (Sigma-Aldrich, A0561) density gradient centrifugation. After isolation, PBMCs were stored in liquid nitrogen for later use. Upon thawing, PBMC cell viability was determined in growth medium (RPMI media supplemented with 10% fetal bovine serum, 1% Pen-Strep and 1% L-glutamine). Compounds were spotted in a 1:3 serial dilution in DMSO and diluted to the final concentration in 30 μl medium in 96 well plates (Falcon, 353072). PBMCs were added at a density of 7.5×10^4 cells per well and incubated for 30 min in a 5% CO2 incubator at 37° C. LPS stimulation was performed by addition of 100 ng/ml LPS (final concentration, Invivogen, tlrl-smlps) for 6 hrs followed by collection of cellular supernatant and the analysis of IL-1β […] and TNF cytokines levels […] via MSD technology according to manufacturers' guidelines (MSD, K15A0H).
The IC50 values (for IL-1β) and EC50 values (TNF) were obtained on compounds of the invention/examples, and are depicted in the following table: […]

The target in the next series is T1, NLRP3 (Homo sapiens, UniProt Q96P20).
T1 construct: human peripheral blood mononuclear cells (PBMCs) were isolated from blood; endogenous in cells; host or cells: primary human PBMCs from healthy donors
T1 sequence (Q96P20 whole entry): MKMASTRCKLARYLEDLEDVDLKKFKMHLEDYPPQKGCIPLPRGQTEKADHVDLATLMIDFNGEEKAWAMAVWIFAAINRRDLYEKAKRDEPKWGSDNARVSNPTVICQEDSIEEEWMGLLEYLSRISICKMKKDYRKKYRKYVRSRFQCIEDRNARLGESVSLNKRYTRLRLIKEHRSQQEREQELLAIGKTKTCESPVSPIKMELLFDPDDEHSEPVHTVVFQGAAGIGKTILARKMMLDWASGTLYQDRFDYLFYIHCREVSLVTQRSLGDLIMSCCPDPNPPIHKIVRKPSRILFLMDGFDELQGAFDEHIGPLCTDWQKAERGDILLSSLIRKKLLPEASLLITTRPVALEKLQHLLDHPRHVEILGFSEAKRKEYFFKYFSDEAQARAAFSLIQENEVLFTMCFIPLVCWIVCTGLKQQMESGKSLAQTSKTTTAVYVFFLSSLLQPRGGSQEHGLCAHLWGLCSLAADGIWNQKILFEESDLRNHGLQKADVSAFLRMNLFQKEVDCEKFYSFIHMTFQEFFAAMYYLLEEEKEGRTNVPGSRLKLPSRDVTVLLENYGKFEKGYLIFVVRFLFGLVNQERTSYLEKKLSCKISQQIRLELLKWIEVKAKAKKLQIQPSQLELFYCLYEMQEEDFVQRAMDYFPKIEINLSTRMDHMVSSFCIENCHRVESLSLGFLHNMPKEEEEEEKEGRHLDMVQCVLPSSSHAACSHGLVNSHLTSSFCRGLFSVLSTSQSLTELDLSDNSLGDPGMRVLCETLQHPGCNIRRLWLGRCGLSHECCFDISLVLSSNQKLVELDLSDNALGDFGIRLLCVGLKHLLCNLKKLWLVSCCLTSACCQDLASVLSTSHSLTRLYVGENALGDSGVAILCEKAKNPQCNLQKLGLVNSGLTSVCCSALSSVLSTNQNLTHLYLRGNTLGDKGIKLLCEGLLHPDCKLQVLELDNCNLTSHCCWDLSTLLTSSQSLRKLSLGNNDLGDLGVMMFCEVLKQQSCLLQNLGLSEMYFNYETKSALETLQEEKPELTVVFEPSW
The series can be described thus: PBMC assay: IL-1β levels in supernatant of LPS-stimulated human PBMCs (MSD). Format: cell-based. The following applies: 30 min compound pre-incubation, 100 ng/ml LPS for 6 hrs, IL-1β in supernatant, read-out: IL-1B IC50. How it is done:
The activity of a compound according to the present invention can be assessed by in vitro methods.
as §1, with “Compounds were spotted in a 1:3 serial dilution in DMSO and diluted to the final concentration in 30 μl medium in 96 well plates (Falcon, 353072).” left out

In general, EC50 refers to the concentration giving half of the maximal effect. By IC50 is commonly meant the concentration needed to halve the response being measured. As usually defined, the melting point is the temperature, or range, at which the solid turns liquid.

The compound `Cc1nnc2n1C[C@H](NC(=O)Cn1nc(C(C)C)c3nc(C4CC4)sc3c1=O)CC2` (single isomer, unassigned) [F-32] came in with an EC50 in the series on TNF (Homo sapiens, PBMC) of more than 20000 nM. For the same compound, the IC50 on NLRP3 was found to be 6600 nM.

For `Cc1nnc2n1C[C@@H](NC(=O)Cn1nc(C(C)C)c3nc(C4CC4)sc3c1=O)CC2` (single isomer, unassigned) [F-33], the EC50 in the series on TNF (Homo sapiens, PBMC) is more than 20000 nM. The IC50 at NLRP3 is 300 nM.

`CC(C)c1nn(CC(=O)Nc2ccncn2)c(=O)c2sc(C3CC3)nc12` [F-1, 2-(2-cyclopropyl-4-isopropyl-7-oxo-thiazolo[4,5-d]pyridazin-6-yl)-N-pyrimidin-4-yl-acetamide] came in with an EC50 in the series with TNF (Homo sapiens, PBMC) of 19700 nM. Further, the IC50 at NLRP3 turned out to be 105 nM.

Consider `CC(C)c1nc2c(C(C)C)nn(CC(=O)Nc3ccncn3)c(=O)c2s1` [F-2], for which, in the series with TNF (Homo sapiens, PBMC), the EC50 was 5590 nM. In addition, at NLRP3, the IC50 was 105 nM.

As to `CC(C)c1nc2c(C(C)C)nn(CC(=O)Nc3ccnnc3)c(=O)c2s1` [F-3], it took 7180 nM to reach a half-maximal effect in the series with TNF (Homo sapiens, PBMC) (EC50). Moreover, the IC50 on NLRP3 is 181 nM.

Consider `CC(C)c1nc2c(C(C)C)nn(CC(=O)Nc3ccc4nncn4c3)c(=O)c2s1` [F-4], for which it took 11500 nM to reach a half-maximal effect with TNF (Homo sapiens, PBMC) (EC50). Also, the IC50 on NLRP3 is 50 nM.

In turn, `CC(C)c1nc2c(C(C)C)nn(CC(=O)N[C@H]3C[C@@](C)(O)C3)c(=O)c2s1` [F-5] gave an EC50 in the series on TNF (Homo sapiens, PBMC) of more than 20000 nM. In addition, at NLRP3, the IC50 amounted to 156 nM.

On to `CC(C)c1nc2c(N(C)C)nn(CC(=O)N[C@H]3C[C@@](C)(O)C3)c(=O)c2s1` [F-6], for which the EC50 in the series on TNF (Homo sapiens, PBMC) is more than 20000 nM. Moreover, the IC50 on NLRP3 is 258 nM.

In the series with TNF (Homo sapiens, PBMC), `CC(C)c1nc2c(N(C)C)nn(CC(=O)Nc3ccc4nncn4c3)c(=O)c2s1` [F-7] showed an EC50 of more than 20000 nM. Also, on NLRP3, the IC50 was 169 nM.

Consider `CCc1nc2c(C(C)C)nn(CC(=O)Nc3ccncn3)c(=O)c2s1` [F-8, 2-(2-ethyl-4-isopropyl-7-oxo-thiazolo[4,5-d]pyridazin-6-yl)-N-pyrimidin-4-yl-acetamide], for which the melting point came to 186 °C. The same compound yielded an EC50 in the series with TNF (Homo sapiens, PBMC) of 9200 nM. Further, the IC50 on NLRP3 was 181 nM.

Take `CCc1nc2c(C(C)C)nn(CC(=O)Nc3ccc4nncn4c3)c(=O)c2s1` [F-9]: the melting point was 284.6 °C. Also, the EC50 in the series with TNF (Homo sapiens, PBMC) is 18000 nM. The half-maximal inhibitory concentration (IC50) on NLRP3 was determined as 95 nM.

The compound `CCc1nc2c(C(C)C)nn(CC(=O)Nc3ccnnc3)c(=O)c2s1` [F-10] gave a melting point of 186.5 °C. Further, in the series on TNF (Homo sapiens, PBMC), a half-maximal effect (EC50) was put at 18600 nM. Besides, the IC50 at NLRP3 amounted to 274 nM.

`CCc1nc2c(C(C)C)nn(CC(=O)N[C@H]3C[C@@](C)(O)C3)c(=O)c2s1` [F-11] returned a melting point of 159.2 °C. In the series on TNF (Homo sapiens, PBMC), this compound gave an EC50 of 19400 nM. Further, at NLRP3, the IC50 amounted to 351 nM.

`CC(C)c1nn(CC(=O)Nc2ccc3nncn3c2)c(=O)c2sc(C3CC3)nc12` [F-12] gave an EC50 with TNF (Homo sapiens, PBMC) of 4990 nM. Moreover, at NLRP3, the IC50 is 23 nM.

Consider `CC(C)c1nn(CC(=O)Nc2ccnnc2)c(=O)c2sc(C3CC3)nc12` [F-13], for which the melting point amounted to 195.2 °C. The EC50 with TNF (Homo sapiens, PBMC) was 6590 nM. Moreover, on NLRP3, the IC50 came out at 100 nM.

With `CC(C)c1nn(CC(=O)N[C@H]2C[C@@](C)(O)C2)c(=O)c2sc(C3CC3)nc12` [F-14], the melting point was found to be 190.5 °C. The EC50 in the series on TNF (Homo sapiens, PBMC) came to 18200 nM. The IC50 at NLRP3 was 55 nM.

The compound `CC(C)c1nn(CC(=O)Nc2ccc3c(c2)[nH]c(=O)n3C)c(=O)c2sc(C3CC3)nc12` [F-15] displayed an EC50 in the series on TNF (Homo sapiens, PBMC) of 7900 nM. Also, on NLRP3, the IC50 was found to be 26 nM.

In turn, `CC(C)c1nn(CC(=O)Nc2ccc(=O)n(C)n2)c(=O)c2sc(C3CC3)nc12` [F-16] yielded a melting point of 233.3 °C. At NLRP3, the IC50 came out at 81 nM.

Consider `CC(C)c1nn(CC(=O)Nc2ccn3cnnc3c2)c(=O)c2sc(C3CC3)nc12` [F-17], for which the melting point turned out to be 206 °C. In the series with TNF (Homo sapiens, PBMC), this compound returned an EC50 of 12500 nM.

On to `CCNc1nc2c(C(C)C)nn(CC(=O)N[C@H]3C[C@@](C)(O)C3)c(=O)c2s1` [F-18], for which the melting point came out at 216.6 °C. For the same compound, the EC50 with TNF (Homo sapiens, PBMC) was more than 20000 nM. On NLRP3, the IC50 was 128 nM.

As to `CC(C)c1nn(CC(=O)Nc2ccc3nncn3c2)c(=O)c2sc(C3CC3(F)F)nc12` (centres unmarked) [F-20], in the series on TNF (Homo sapiens, PBMC), the EC50 is more than 20000 nM. On NLRP3, the IC50 came to 100 nM.

`CC(C)c1nn(CC(=O)N[C@H]2C[C@@](C)(O)C2)c(=O)c2sc(C(F)(F)F)nc12` [F-21]: the melting point came to 181.4 °C. This compound also gave an EC50 with TNF (Homo sapiens, PBMC) of more than 20000 nM. Moreover, the IC50 at NLRP3 stood at 469 nM.

Regarding `CC(C)c1nn(CC(=O)Nc2ccc3nncn3c2)c(=O)c2sc(C(F)(F)F)nc12` [F-22], the melting point stood at 261.8 °C. Also, the EC50 in the series with TNF (Homo sapiens, PBMC) is more than 20000 nM. Moreover, the IC50 at NLRP3 is 332 nM.

`CC(C)c1nn(CC(=O)Nc2ccc3nncn3c2)c(=O)c2sc(C(C)(F)F)nc12` [F-23]: the EC50 in the series with TNF (Homo sapiens, PBMC) is more than 20000 nM. Also, the IC50 on NLRP3 came out at 89 nM.

As for `CC(C)c1nn(CC(=O)Nc2ccc3nncn3c2)c(=O)c2sc(C3COC3)nc12` [F-24], the melting point is 151.3 °C. For the same compound, in the series with TNF (Homo sapiens, PBMC), the EC50 was more than 20000 nM. Moreover, the IC50 on NLRP3 amounted to 567 nM.

The compound `Cn1nc(NC(=O)Cn2nc(C3CC3)c3nc(C4CC4)sc3c2=O)ccc1=O` [F-25] gave a melting point of 219.9 °C. This compound also had an EC50 in the series on TNF (Homo sapiens, PBMC) of approximately 12600 nM. Besides, the IC50 on NLRP3 was 715 nM.

Consider `Cc1nnc2n1CC(NC(=O)Cn1nc(C(C)C)c3nc(C4CC4)sc3c1=O)CC2` (centres unmarked) [F-31], for which the EC50 in the series with TNF (Homo sapiens, PBMC) was more than 20000 nM. Moreover, the IC50 at NLRP3 turned out to be 407 nM.

For the compound `CC(C)c1nn(CC(=O)Nc2ccc3nccn3c2)c(=O)c2sc(C3CC3)nc12` [F-36], the EC50 with TNF (Homo sapiens, PBMC) is 15900 nM. Further, the IC50 on NLRP3 turned out to be 72 nM.

In the case of `CC(C)c1nn(CC(=O)Nc2ccn3cnnc3c2)c(=O)c2sc(C3CC3)nc12` [F-40], the melting point worked out at 299.1 °C. For the same compound, the EC50 in the series with TNF is more than 20000 nM.

As to `CC(C)c1nn(CC(=O)Nc2ccc3nc(C#N)cn3c2)c(=O)c2sc(C3CC3)nc12` [F-42], in the series on TNF (Homo sapiens, PBMC), the EC50 is more than 20000 nM. The IC50 on NLRP3 stood at 188 nM.

Take `CC(C)c1nn(CC(=O)Nc2cnc3ccnn3c2)c(=O)c2sc(C3CC3)nc12` [F-44]: the EC50 in the series with TNF (Homo sapiens, PBMC) was more than 20000 nM. The IC50 at NLRP3 was found to be 2310 nM.

As to `CC(C)c1nn(CC(=O)Nc2ccn3c(F)cnc3c2)c(=O)c2sc(C3CC3)nc12` [F-47], the EC50 in the series on TNF (Homo sapiens, PBMC) was approximately 19600 nM. Also, the IC50 at NLRP3 was found to be 1240 nM.

On to `CC(C)c1nn(CC(=O)Nc2ccc3nnc(Cl)n3n2)c(=O)c2sc(C3CC3)nc12` [F-51], for which the EC50 with TNF (Homo sapiens, PBMC) is more than 20000 nM. Also, the IC50 on NLRP3 was 286 nM.

For the compound `CC(C)c1nn(CC(=O)Nc2ccc3nncn3n2)c(=O)c2sc(C(C)(F)F)nc12` [F-52, N-([1,2,4]triazolo[4,3-b]pyridazin-6-yl)-2-(2-(1,1-difluoroethyl)-4-isopropyl-7-oxothiazolo[4,5-d]pyridazin-6(7H)-yl)acetamide], in the series with TNF (Homo sapiens, PBMC), the EC50 came out at 18600 nM. The IC50 on NLRP3 worked out at 56 nM.

Compound `CC(C)c1nn(CC(=O)Nc2ccc3nc(C(F)(F)F)cn3c2)c(=O)c2sc(C3CC3)nc12` [F-58] showed an EC50 in the series with TNF (Homo sapiens, PBMC) of 19800 nM. At NLRP3, the IC50 was 224 nM.

In the series on TNF (Homo sapiens, PBMC), `CC(C)c1nn(CC(=O)Nc2cc(C#N)c3nncn3c2)c(=O)c2sc(C3CC3)nc12` [F-60, N-(8-cyano-[1,2,4]triazolo[4,3-a]pyridin-6-yl)-2-(2-cyclopropyl-4-isopropyl-7-oxothiazolo[4,5-d]pyridazin-6(7H)-yl)acetamide] showed an EC50 of more than 20000 nM. Also, the IC50 on NLRP3 was determined as 316 nM.

For the origin of these results see US20240043450A1, “NEW COMPOUND” (JANSSEN PHARMACEUTICA NV, priority 2020, published 2024).
